In article PMC9608142, “Population pharmacokinetic analysis, renal safety, and dosing optimization of polymyxin B in lung transplant recipients with pneumonia: A prospective study” (Frontiers in Pharmacology, 2022):
Read-outs that look alike come from different tables or passages of the source. Bridge positions count the residues as written; N and C are the ends. Square brackets hold non-standard residues; d marks the D form. Peptide text beside a SMILES is read from it. * marks the point of attachment. X1 = CC[C@H](C)CCCCC(=O)*; Dab = NCC[C@H](N)C(=O)O

Tests used:
[1] = test system: carbapenem-resistant organisms (A. baumannii, P. aeruginosa, K. pneumoniae, E. cloacae); test: Clinical treatment efficacy and microbiological efficacy in lung transplant recipients with pneumonia; type: in vivo, human
From the text: (§1) This prospective study was approved by the Ethical Committees of the affiliated Wuxi People’s Hospital of Nanjing Medical University, China (KS202002), in accordance with the Declaration of Helsinki. The informed consent was obtained from each patient or his/her legal representatives. Adult lung transplant recipients receiving polymyxin B sulfate against confirmed MDR Gram-negative bacterial infections at the affiliated Wuxi People’s Hospital of Nanjing Medical University, from January 2020 to December 2021, were included in this study. The inclusion criteria were as follows: 1) ≥18 years old; 2) diagnosis of pneumonia; 3) receiving polymyxin B therapy for at least 3 days; 4) having at least one plasma concentration of polymyxin B. The exclusion criteria were as follows: 1) allergic or intolerant to polymyxin B; 2) died within 24 h after being treated with polymyxin B.
The demographic characteristics, laboratory data, pathogenic bacteria, medication information, and adverse events of polymyxin B sulfate were acquired from the patients’ medical records. Clinical success was defined as improvement of clinical symptoms and parameters including body temperature, biochemistry indicators of infection (white cell count ≤ 10^9, C-reactive protein ≤10 mg/L, procalcitonin <0.05 ng/ml, and erythrocyte sedimentation rate <15 mm/h), and clinician-documented improvement at the end of treatment ([Yu et al., 2022]). RIFLE (Risk, Injury, Failure, Loss of function, and End-stage kidney disease) criteria were used to assess the acute kidney injury (AKI) caused by polymyxin B ([Han et al., 2022]). The definition of nephrotoxicity caused by polymyxin B was further confirmed using the Naranjo criteria. Hyperpigmentation is defined as the darkening of the skin’s natural color, usually due to an increase in melanin deposition in the epidermis or dermis ([Lu and Hou, 2020]).
(§2) The decision to administer polymyxin B (sulfate, Polymyxin B for Injection, Shanghai Number one Biochemical and Pharmaceutical, Shanghai, China) and its medication, including the amount, dosing interval, administration route, and treatment duration, were decided by the attending physician. Generally, the loading dose of 2.0–2.5 mg/kg, and the maintenance dose of 1.25–1.5 mg/kg given every 12 h infused over 1 h was recommended according to the guideline for optimizing polymyxins ([Tsuji et al., 2019]). In addition, inhalation of polymyxin B sulfate (25 mg q12h) was combinedly used.

[2] = parenteral polymyxin B, mouse infection studies; ref Nang et al., 2021; cited from earlier work
From the text: The urinary recovery of polymyxin B is low and non-renal clearance is considered the major route of the clearance of polymyxin B ([Tsuji et al., 2019]), but it undergoes extensive reabsorption by renal tubular cells ([Nang et al., 2021]).

[3] = Population pharmacokinetic analysis (NONMEM) of polymyxin B plasma concentrations in lung transplant recipients; type: in vivo, human
From the text: as §1, §2
All the blood samples were collected at least 48 h after initiating polymyxin B ([Tsuji et al., 2019]). In each patient, four blood samples were collected: 0.5 h before starting the infusion, 1, 2, and 6 h after completing the infusion, respectively. After sampling, blood samples were immediately centrifuged at 15,000 rpm for 5 min and stored at −80°C. The concentrations of polymyxin B in the blood samples were determined by a validated high-performance liquid chromatography-tandem mass spectrometry (LC-MS/MS) assay ([Thomas et al., 2012]). The calibration range of polymyxin B by the method was 0.1–30 μg/ml. The method validations including selectivity, recovery, precision, accuracy, matrix effect, calibration curve, and stability met the requirement of FDA principles.
Nonlinear mixed-effects modeling (NONMEM) program (version 7.4, Icon Development Solutions, Ellicott City, MD, United States) and Pirana (version 2.9.7) was used to perform PK analysis of polymyxin B. R (Version 3.6.1) was used to analyze the NONMEM output. The first-order conditional estimation with the interaction between inter-patient variability and residual variability was used for model development.
One- or two-compartment structural model with first-order elimination were explored for the concentration-time profiles. Visual inspection of diagnostic plots and goodness-of-fit criteria, condition number, and improvement of the objective function value (OFV) were performed to evaluate the base model. The pharmacokinetic parameters used for this study were clearance (CL) and volume of distribution (V). Between-subject variability (BSV) was assessed using the exponential model (Eq. 1). Pi=P×EXP(ETA( ηi)) (1) Pi was the individual patient PK parameter; P was the typical value; ηi was the interpatient random variation.
Residual variability was assessed by additive (Eq. 2), proportional (Eq. 3), or combined (additive plus proportional) (Eq. 4) error models, respectively. The optimal one was chosen based on the decrease in OFV. Y=F+EPS (1) (2) Y=F+F×EPS (1) (3) Y=F+F×EPS (1)+EPS(2) (4) Y was the individual observed concentration; F was the individual predictive concentration; EPS was the residual random variation.
Relationships between the potential covariates and individual PK parameters were examined visually. […]

[4] = cited from earlier work
From the text: Supplement DataSheet1.docx, table 2: Table S2. […] The urinary recovery of polymyxin B is low and non-renal clearance is considered the major route of the clearance of polymyxin B ([Tsuji et al., 2019]), but it undergoes extensive reabsorption by renal tubular cells ([Nang et al., 2021]). […] The ratio of the area of unbound concentration-time curve to the MIC (fAUC/MIC) is the best PK/PD index predicting bacterial killing for polymyxins ([Dudhani et al., 2010a]; [Dudhani et al., 2010b]; [Cheah et al., 2015]). The fAUC/MIC value ≥20 at various MICs (0.5–2 mg/L) was used as the target ([Sandri et al., 2013]), where f (assumed to be 0.42) is the unbound fraction of polymyxin B ([Sandri et al., 2013]). The probability of target attain ... || (+ 2 further places)

Acinetobacter Baumannii = conditions: thigh infection model, ref Cheah et al., 2015; cited from earlier work
Description: (§3) This is the first study to simulate the PTA and AUCss,24h of different dosage regimens in lung transplant patients. In vitro and animal studies pointed out that fAUC/MIC is the PK/PD index that is best correlated with the efficacy of polymyxins ([Tsuji et al., 2019]). In the thigh infection model, the fAUC/MIC values of colistin for 2log10 bacterial killings were approximately 20 for P. aeruginosa and Acinetobacter Baumannii ([Cheah et al., 2015]). Therefore, considering the similar molecular structures and in vitro activity of colistin and polymyxin B, the fAUC/MIC ≥20 was determined as the P ...

P. aeruginosa = conditions: thigh infection model, ref Cheah et al., 2015; cited from earlier work
Description: as §3

[5] = bootstrap of final model, median estimate, 1,000 replicates
[6] = adult patients, n = 35, 1 CMT, ref Manchandani et al. 2018 [29]
[7] = adult patients, n = 43, 1 CMT, ref Kubin et al. 2018 [31]
[8] = adult patients, n = 46, 2 CMT, ref Wang et al. 2020 [27]
[9] = adult patients, n = 52, 2 CMT, ref Miglis et al. 2018 [28]
[10] = adult patients, n = 52, ref Miglis et al. 2018 [28]
[11] = critically ill patients, n = 24, 2 CMT, ref Sandri et al. 2013 [22]

CC[C@H](C)CCCCC(=O)N[C@@H](CCN)C(=O)N[C@H](C(=O)N[C@@H](CCN)C(=O)N[C@H]1CCNC(=O)[C@H]([C@@H](C)O)NC(=O)[C@H](CCN)NC(=O)[C@H](CCN)NC(=O)[C@H](CC(C)C)NC(=O)[C@@H](Cc2ccccc2)NC(=O)[C@H](CCN)NC1=O)[C@@H](C)O [polymyxin B] (X1-[Dab]T[Dab][Dab][Dab][dF]L[Dab][Dab]T; lactam 4-C)
Clinical anti-infective outcome: Failed ([1]; 5 of 34 patients, iv plus inhaled polymyxin B): 5 (14.71%) | Clinical anti-infective outcome: Cured ([1]; 12 of 34 patients, iv plus inhaled polymyxin B, treatment 17.94 ± 7.13 days): 12 (35.29%) | Clinical anti-infective outcome: Improved ([1]; 17 of 34 patients, iv plus inhaled polymyxin B): 17 (50%) | patients considered of clinical cure or improved ([1]; 29 of 34 patients, end of treatment): 85.29% | penetration in the lungs [2]: poor penetration in the lungs | θCL, typical value of clearance [3, 5]: 1.72 L/h | θV, typical value of volume of distribution [3, 5]: 14.3 L | effect of concomitant furosemide or albumin on the PK of polymyxin B ([3]; covariate test in lung transplant recipients, limited number of patients): did not significantly affect the PK | θV, typical value of volume of distribution ([3]; final model estimate, 1-compartment): 14.4 L | CrCL on CL (θ1), exponential value for CrCL as covariate of CL ([3]; final model estimate, CrCL/78.49): 0.681 | clearance ([3]; human, plasma, iv, base model estimate (no covariate), read-out: TVCL, typical value of clearance (converted)): 27.5 mL/min | clearance ([3]; human, plasma, iv, final model estimate, 1-compartment, first-order elimination, at median CrCL 78.49 ml/min, read-out: θCL, typical value of clearance (converted)): 28.7 mL/min | clearance ([3]; human, plasma, iv, present study, lung transplant patients, n = 34, read-out: CL (PK Parameters) (converted)): 31.2 mL/min | Vd ([3]; human, plasma, iv, base model estimate, read-out: TVV, typical value of volume): 14.6 L | AUC ([3]; mean ± SD, 34 lung transplant recipients, AUC0-24 by linear-log trapezoidal rule from Bayesian-predicted concentrations, SD): 69660 ± 35920 ng·h/mL | CL, typical value in PK formula ([4]; adult critically ill patients, n = 32, 1 CMT, CL = 1.59+(CrCL/80)^0.408, ref Yu et al. 2021 [26]): 1.59 L/h | V ([4]; adult critically ill patients, n = 32, 1 CMT, ref Yu et al. 2021 [26]): 20.5 L | CL (PK Parameters) ([4]; adult critically ill patients, n = 32, ref Yu et al. 2021 [26]): 1.75 L/h | CL in PK formula [4, 6]: 2.5 L/h | V [4, 6]: 34.3 L | CL (PK Parameters), mean ([4]; adult patients, n = 35, mean, ref Manchandani et al. 2018 [29]): 2.5 L/h | CL in PK formula [4, 7]: 2.37 L/h | V [4, 7]: 33.4 L | Q [4, 8]: 13.518 L/h | V [4, 8]: 6.218 L | V2 [4, 8]: 11.922 L | CL, typical value in PK formula ([4]; adult patients, n = 46, 2 CMT, ×(CrCL/105.9)^0.362, ref Wang et al. 2020 [27]): 1.786 L/h | CL (PK Parameters), median ([4]; adult patients, n = 46, median, ref Wang et al. 2020 [27]): 1.786 L/h | Q [4, 9]: 2.32 L/h | Vc [4, 9]: 33.77 L | Vp [4, 9]: 78.20 L | CL, typical value in PK formula ([4]; adult patients, n = 52, 2 CMT, ×(TBW/75)^0.75, ref Miglis et al. 2018 [28]): 2.63 L/h | CL (PK Parameters) [4, 10]: 2.63 ± 1.41 L/h | V (PK Parameters) [4, 10]: 33.77 ± 15.21 L | f, unbound fraction of polymyxin B ([4]; assumed value used for fAUC/MIC, ref Sandri et al., 2013): 0.42 | effect of inhalation therapy on the exposure of polymyxin B in blood ([4]; co-inhalation 25 mg q12h, critically ill patients, ref Yu et al., 2021): did not significantly increase the exposure | CLic [4, 11]: 2.43 mL/min/kg | V1 [4, 11]: 0.0939 L/kg | V2 [4, 11]: 0.330 L/kg | CL, typical value in PK formula ([4]; critically ill patients, n = 24, 2 CMT, ×(TBW/75)^0.75, ref Sandri et al. 2013 [22]): 0.46 mL/min/kg | urinary recovery ([4]; non-renal clearance considered the major route, ref Tsuji et al., 2019): low | CL, typical value in PK formula ([4]; renal transplant patients, n = 50, 1 CMT, CL = 1.18×(CrCL/22.2)^0.14, ref Li et al. 2021 [14]): 1.18 L/h | V ([4]; renal transplant patients, n = 50, 1 CMT, ref Li et al. 2021 [14]): 12.09 L

colistin
fAUC/MIC value for 2log10 bacterial killings (Acinetobacter Baumannii): approximately 20 | fAUC/MIC value for 2log10 bacterial killings (P. aeruginosa): approximately 20
